These results are taken from ChEMBL document CHEMBL1157062, “Malyngolide dimer, a bioactive symmetric cyclodepside from the panamanian marine cyanobacterium Lyngbya majuscula” (J Nat Prod, 2010).

Series [1] concerns the target T1, NAD-dependent protein deacetylase sirtuin-2 (Homo sapiens) (UniProt Q8IXJ6).
T1 sequence (whole entry): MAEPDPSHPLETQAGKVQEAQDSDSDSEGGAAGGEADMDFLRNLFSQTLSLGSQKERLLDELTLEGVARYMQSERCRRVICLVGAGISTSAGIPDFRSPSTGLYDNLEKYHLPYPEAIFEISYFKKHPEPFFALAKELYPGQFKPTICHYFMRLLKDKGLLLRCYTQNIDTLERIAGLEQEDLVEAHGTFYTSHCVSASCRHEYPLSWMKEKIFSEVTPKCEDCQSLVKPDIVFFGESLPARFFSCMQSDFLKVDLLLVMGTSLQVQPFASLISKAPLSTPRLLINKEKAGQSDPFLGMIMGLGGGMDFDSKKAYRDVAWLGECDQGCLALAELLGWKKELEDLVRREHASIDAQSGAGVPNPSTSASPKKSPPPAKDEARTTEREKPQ
The series can be described thus: Inhibition of SIRT2.

The subject of a further series is Plasmodium falciparum. Put plainly: Antiplasmodial activity against Plasmodium falciparum W2 assessed as picogreen-DNA intercalation by microfluorimetric assay. Format: functional, organism-based.
A short description of series [2]: Cytotoxicity against human NCI-H460 cells assessed as cell viability at 9 uM after 48 hrs by MTT assay. The class given is cell-based. As to conditions: read-out: Activity.
Series [3] can be described thus: Cytotoxicity against human NCI-H460 cells assessed as cell viability at 55 uM after 48 hrs by MTT assay. Format: cell-based. As to conditions: read-out: Activity.
The target in series [4] is T1, NAD-dependent protein deacetylase sirtuin-2 (Homo sapiens). Put plainly: Inhibition of SIRT2 at 50 uM.

In series [1], `CCCCCCCCCCC[C@]1(CO)CCCC(=O)O[C@](CO)(CCCCCCCCCCC)CCCC(=O)O1` returned an INH of 0.176 µM.
Consider `CCCCCCCCC[C@@]1(CO)CC[C@@H](C)C(=O)O[C@@](CO)(CCCCCCCCC)CC[C@@H](C)C(=O)O1`, for which the half-maximal inhibitory concentration (IC50) with Plasmodium falciparum came to 19 µM. Further, the viability at 48 h, 9 µM in series [2] came to 110%. Moreover, the viability at 48 h, 55 µM in series [3] worked out at 10%. The compound further yielded an inhibition in series [4] of 30%.
